Counter-ions that a name gives are not always drawn.
Columns and labels:
MOLM-14 cells = test: Proliferation assay (spheroid), MOLM-14; assay type: cell-based; details: Homo sapiens, 8 days, read-out: spheroid assay_OneTime MOLM-14 IC50
hERG = hERG (Homo sapiens (Human), UniProt Q12809); test: hERG current in hERG-transfected HEK293 cells (Protocol 2, SyncroPatch 384PE); assay type: cell-based; details: Protocol 2, HEK293 cells
Experimental: The compound, vehicle control and positive control were tested on hERG-transfected HEK293 cells. A human embryonic kidney cell line (HEK293) with a stable transfection of hERG (Zhou Z et al. Biophysical Journal 1998. 74, 230-241; McDonald T. V. et al, Nature 1997. 388, 289-292) was used (University of Wisconsin, Madison, USA). The cells were kept in culture in MEM (Minimum Essential Medium, Gibco) which was supplemented with (amounts indicated added to 500 ml MEM): 5 ml L-Glutamine-Penicillin-Streptomycin (Sigma), 50 ml Fetal Bovine serum (Bio-Whittaker), 5 ml Non-essential Amino Acids 100× (Gibco), 5 mil sodium pyruvate 100 mM (Gibco) and 4 ml geneticin 50 mg/ml (Gibco) using T175 flasks.
Cells were harvested as described below using Accumax™ (Sigma) as the dissociating reagent. Cells were then resuspended in a mixture of 33% DMEM/F12 (Dulbecco's Modified Eagle Medium/Nutrient Mixture F-12—Sigma) media/67% extracellular physiological solution. […]
The whole cell patch clamp technique on transfected cells allows the study of ion-channels with no—or limited interference from other ion-channels. […] All cells were recorded in the whole cell mode of the patch clamp technique. […]
After the whole cell mode was achieved, test pulses were given for ˜10 minutes to quantify the hERG current in control conditions. […]

[1] = Metabolic stability in human liver microsomes; assay type: in vitro ADME; details: pH 7.4, 0.5 mg/mL microsomes protein, read-out: Human LM Clint
Experimental: (§1) 4) Metabolic Stability in Human/Mouse Liver Microsomes
(§2) The objective of this study is to measure in vitro metabolic stability of test compound(s) in human and mouse liver microsomes and provide quantitative information on the rate of metabolic turnover (i.e., determination of the apparent intrinsic clearance of test).
(§3) Test items were prepared at a stock concentration of 10 mM in DMSO. For determination of metabolic turnover, a final working solution was prepared by adding 2 μL of 10 mM DMSO stock solution for test compound or positive control compounds to 198 μL of acetonitrile (100 μM final concentration).
Incubations were performed as follows: First, liver microsomes were thawed on ice and a master solution containing liver microsomes in 100 mM PBS (phosphate-buffered saline) at pH 7.4 is prepared. Next, the liver microsomes solution was added to the incubation plates and 10 mM NADPH (Nicotinamide-adenine dinucleotide phosphate) was added (MW: 833.4 g/mol; Roche Diagnostics GmbH1, Germany. Dissolved in phosphate buffer (100 mmol/L, pH 7.4)). […]
(§4) All calculations were carried out using Microsoft Excel. The slope value, k, was determined by linear regression of the natural logarithm of the remaining percentage of the parent drug vs. incubation time curve.
(§5) The in vitro half-life (in vitro t1/2) was determined from the slope value: […]

[2] = Metabolic stability in mouse liver microsomes; assay type: in vitro ADME; details: pH 7.4, 0.5 mg/mL microsomes protein, read-out: Mouse LM Clint
Experimental: as §1, §2, §3
Incubations were performed as follows: First, liver microsomes were thawed on ice and a master solution containing liver microsomes in 100 mM PBS (phosphate-buffered saline) at pH 7.4 is prepared. Next, the liver microsomes solution was added to the incubation plates and 10 mM NADPH (Nicotinamide-adenine dinucleotide phosphate) was added (MW: 833.4 g/mol; Roche Diagnostics GmbH1, Germany. Dissolved in phosphate buffer (100 mmol/L, pH 7.4)). The mixture was mixed for 10 seconds and pre-warmed in the incubation plate at 37° C. for 10 minutes. The metabolic reaction was initiated with the addition of 5 μL of the 100 μM working solution for test compound or positive control compounds to incubation plate (final test item concentration=1 μM). The reaction final mixture should contain 1 mM NADPH, 0.5 mg/mL microsomes protein and 1 μM test compound or positive control compound in 100 mM PBS at pH 7.4. The percentage of organic solvent in incubation mixture is 1% with DMSO 0.02%.
The reaction was quenched by transferring 50 μL of the incubated mixture at selected time points into the quenching plate containing 200 μL of cold methanol. […]
as §4, §5

Sequence of hERG (Q12809 whole entry): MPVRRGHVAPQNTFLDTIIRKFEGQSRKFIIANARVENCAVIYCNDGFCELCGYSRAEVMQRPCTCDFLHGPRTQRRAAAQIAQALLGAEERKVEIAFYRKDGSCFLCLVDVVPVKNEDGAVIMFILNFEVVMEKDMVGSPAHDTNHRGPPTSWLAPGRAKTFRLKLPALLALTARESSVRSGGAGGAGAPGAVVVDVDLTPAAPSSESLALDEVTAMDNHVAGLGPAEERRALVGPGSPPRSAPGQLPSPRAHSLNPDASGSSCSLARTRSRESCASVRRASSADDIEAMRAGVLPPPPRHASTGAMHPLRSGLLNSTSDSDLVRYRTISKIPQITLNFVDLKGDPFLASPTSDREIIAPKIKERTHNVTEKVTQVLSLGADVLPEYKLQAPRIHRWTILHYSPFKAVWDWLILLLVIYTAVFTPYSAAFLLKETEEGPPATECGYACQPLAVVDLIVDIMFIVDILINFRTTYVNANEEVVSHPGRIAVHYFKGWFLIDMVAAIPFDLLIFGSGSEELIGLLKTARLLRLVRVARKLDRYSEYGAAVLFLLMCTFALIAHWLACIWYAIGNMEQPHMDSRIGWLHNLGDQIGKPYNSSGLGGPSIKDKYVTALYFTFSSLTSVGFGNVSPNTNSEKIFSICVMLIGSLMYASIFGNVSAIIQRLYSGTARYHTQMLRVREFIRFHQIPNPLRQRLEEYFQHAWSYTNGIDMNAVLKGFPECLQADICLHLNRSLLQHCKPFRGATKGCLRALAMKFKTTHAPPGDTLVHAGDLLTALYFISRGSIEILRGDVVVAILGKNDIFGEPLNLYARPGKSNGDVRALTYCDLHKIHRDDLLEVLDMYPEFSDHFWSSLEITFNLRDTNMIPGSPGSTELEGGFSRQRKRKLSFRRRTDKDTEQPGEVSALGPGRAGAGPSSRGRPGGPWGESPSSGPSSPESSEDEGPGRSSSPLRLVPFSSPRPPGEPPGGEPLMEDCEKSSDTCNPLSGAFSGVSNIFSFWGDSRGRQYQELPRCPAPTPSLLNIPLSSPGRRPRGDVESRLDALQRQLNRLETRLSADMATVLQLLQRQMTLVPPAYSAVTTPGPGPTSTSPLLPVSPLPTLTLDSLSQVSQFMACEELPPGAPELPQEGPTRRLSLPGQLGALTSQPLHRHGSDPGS

IC50 (MOLM-14 cells) [nM] | microsomal CLint at 1 μM [1] [µL/min/mg] | microsomal CLint at 1 μM ([2]; liver microsomes) [µL/min/mg] | Compound | IC50 (hERG) [nM] | microsomal CLint at 1 μM ([2]; mouse liver microsomes) [µL/min/mg]
21 | 14 | < 7.5 | CCN(C(=O)c1cc(F)ccc1Oc1nncnc1N1CCC2(C1)CN([C@H](CCCNCCOC)C(C)C)C2)C(C)C [Compound 11, (R)-N-ethyl-5-fluoro-N-isopropyl-2-((5-(2-(6-((2-methoxyethyl)amino)-2-methylhexan-3-yl)-2,6-diazaspiro[3.4]octan-6-yl)-1,2,4-triazin-6-yl)oxy)benzamide] | > 30200 | –
– | – | – | CCN(C(=O)c1cc(F)ccc1Oc1nncnc1N1CCC2(C1)CN([C@H](CCCN(C)CCOC)C(C)C)C2)C(C)C [Compound A3, (R)-N-ethyl-5-fluoro-N-isopropyl-2-((5-(2-(6-((2-methoxyethyl) (methyl)amino)-2-methylhexan-3-yl)-2,6-diazaspiro[3.4]octan-6-yl)-1,2,4-triazin-6-yl)oxy) benzamide oxalate] | – | < 7.5

Source: patent US20240261292A1, “COMBINATION THERAPIES” (Janssen Pharmaceutica NV, priority 2021, published 2024)
